From US20230021957A1, “USE OF PSILOCIN, […] ANALOGS THEREOF IN WEIGHT LOSS, TREATMENT OF OBESITY AND COMPULSIVE EATING DISORDER” (NEONMIND BIOSCIENCES INC., priority 2019, published 2023)

Tests used:
[1] = Weight loss in obese males, gel tabs on weekdays for 2 months; type: in vivo, human; settings: 2.5 mg gel tab every morning on weekdays
Protocol: 12 males all weighing between 250 and 275 lbs and all having BMI indexes between 30 and 35 kg/m^2 are split into two groups. The first is provided with placebo gel tabs; the second with indistinguishable gel tabs containing 2.5 mg of purified synthetically produced psilocin in a pharmaceutically acceptable carrier. Both groups are instructed to take one gel tab every morning, before breakfast, on weekdays, with weekends off, for 2 months. At the end of the two months, the first (placebo) group is found to have a similar weight as before the treatment, whereas the treatment group loses an average of 12 lbs each.

[2] = Weight gain of rats on a high calorie diet, once daily psilocybin for five days; type: in vivo, Sprague-Dawley rats; settings: for total weight gain over the 5 day period: control 27.8
Protocol: In order to determine whether psilocybin has anorectic—and therefore weight loss—properties, a preclinical study of the drug was conducted, using a well-validated animal model. Rodent models of food consumption and weight gain have a strong homology with humans, as rodents are omnivores with a very similar metabolic physiology. […] The goal of the present study was to cause accelerated weight gain with a high calorie diet, consisting of a highly palatable food with a large proportion of fat and carbohydrate, compared to standard animal food, which is designed to maintain a healthy weight. We evaluated whether treatment with two different doses of psilocybin could reduce the accelerated weight gain caused by this diet.
Adult, male Sprague-Dawley rats were purchased from the animal supplier, and then housed in pairs in polycarbonate cages, with access to water and standard rat food ad libitum. Rats were given a period of time to acclimate to the animal colony. They were then all given unlimited access to a highly palatable diet that is very high in carbohydrate and fat (consisting predominantly of a hazelnut-flavored chocolate spread combined with peanut butter) that has been used routinely in multiple published studies with rats to study rapid weight gain (Hansen et al., Acta pharmacologica Sinica. 2012; 33(2):194-200). Animals were randomly assigned to one of three treatment groups, which consisted of once daily administration of either a lower dose (5 mg/kg; n=7 animals) of psilocybin, a higher dose (20 mg/kg; n=7 animals) of psilocybin, or no psilocybin (n=12 animals). The psilocybin was supplied by the Katz Group at the University of Alberta, and was legally approved by an exemption from Health Canada.
Rats were administered the drug approximately two hours before the lights went off in the animal colony, which is when feeding typically commences. Animals were free to consume as much of the regular rat food or high calorie diet as they wished. They were weighed each day prior to drug treatment, to determine how much weight had been gained in the previous 24 hours. The study administered the drug over five consecutive days. Data were statistically analyzed by (SPSS Version 24 software package) using a one-way Analysis of Variance (ANOVA) with a LSD-post hoc test to detect between-group differences.

[3] = test system: compulsive eating disorder; assay: Self-reported instances of compulsive eating over two months; settings: once a day with breakfast for two months; compared to first two months without treatment

| SMILES | fasting glucose levels [1] | insulin resistance [1] | levels of hypertension [1] | lipid count in the blood stream [1] | average weight loss ([1]; males 250-275 lbs, BMI 30-35) [lbs] | reduction in weight gain vs control ([2]; 5 mg/kg once daily, 5 days) [%] | total weight gain over the 5 day period ([2]; 5 mg/kg once daily) [grams] | cumulative weight gain, day-by-day comparison with controls ([2]; 20 mg/kg) | relative weight gain, day-by-day comparison with controls ([2]; 20 mg/kg) | reduction in weight gain vs control ([2]; 20 mg/kg once daily, 5 days) [%] | total weight gain over the 5 day period ([2]; 20 mg/kg once daily) [grams] | decrease of weight gain (summary) ([2]; both doses of psilocybin) | total relative weight gain (relative to baseline weight) ([2]; both psilocybin groups (5 and 20 mg/kg), 5 days, controls 8.4%) [%] | decrease in relative weight gain vs controls ([2]; both psilocybin groups (5 and 20 mg/kg), 5 days, p=0.01) [%] | relative weight gain, day-by-day comparison with controls ([2]; both psilocybin groups (5 and 20 mg/kg), p<0.05) | weight gain per day ([2]; both psilocybin-treated groups (5 and 20 mg/kg once daily), control 5-8) | cumulative weight gain, day-by-day comparison with controls ([2]; both psilocybin-treated groups (5 and 20 mg/kg)) | self-reported instances of compulsive eating [3] |
| --- | --- | --- | --- | --- | --- | --- | --- | --- | --- | --- | --- | --- | --- | --- | --- | --- | --- | --- |
| CN(C)CCc1c[nH]c2cccc(O)c12 [psilocin, 4-hydroxy-N,N-dimethyltryptamine] | lower fasting glucose levels | decreased insulin resistance | lower levels of hypertension | lower lipid count in the blood stream | 12 | – | – | – | – | – | – | – | – | – | – | – | – | – |
| CN(C)CCc1c[nH]c2cccc(OP(=O)(O)O)c12 [psilocybin] | – | – | – | – | – | 31 | 19.4 | significantly reduced weight gain compared to controls by Day 3 | gained statistically less relative weight by day 3 | 28 | 20.1 | approximately one third | 5.7 | 32 | gained less relative weight by day 4 | 1-8 grams per day | significantly decreased weight gain compared to controls | decrease in compulsive eating |
